Laboratory results as given in US20260297113A1, “DIAZABICYCLOOCTANE INHIBITORS OF KRAS(G12D) AND USES” (Ranok Therapeutics (Hangzhou) Co. Ltd., priority 2023, published 2026).
Read-outs that look alike come from different tables or passages of the source.

What was measured:
Assay type in all cases: cell-based
AGS cells = assay: AGS cell proliferation (CellTiter-Glo); details: AGS gastric carcinoma [heterozygous G12D], 72 hr, 0.5% DMSO, read-out: CTG(IC50) ABS-72 H(nM) AGS
Procedure: The following cancer cell lines were employed: AGS gastric carcinoma [heterozygous G12D](ATCC, CRL-1739); A-427 lung carcinoma [heterozygous G12D](ATCC, HTB-53); ASPC1 pancreatic adenocarcinoma [homozygous G12D](ATCC, CRL-1682) and SW 1990 pancreatic adenocarcinoma [homozygous G12D](ATCC CRL-2172). Cell lines were cultured essentially according to ATCC recommendations.
(§1) AGS, A-427, ASPC1, SW 1990, and GP2D cells were plated in 96-well tissue culture plates at 4,000 cells/well and incubated at 37° […] for 72 hr in 100 μl of media. 3-old serial dilutions of each test compound were prepared ranging from 20 μM to 1.02 nM. Each cell line was then treated with test compounds at various concentrations with a final concentration of 0.5% DMSO/well, and then incubated at 37° C./5% CO2 for 72 hr. 100 μl of CellTiter-Glo® Reagent (Promega Corporation, Madison, WI) was added to each well and processed according manufacturer's protocol. Results were analyzed and IC50 values were calculated in GraphPad 7 software. AGS proliferation assay: A. EC50<100 nM; B. EC50=100-1000 nM; C. EC50>1000 nM; GP2D proliferation assay: A. EC50<100 nM; B. EC50=100-1000 nM; C. EC50>1000 nM; MKN1 proliferation assay: A. EC50<100 nM; B. EC50=100-1000 nM; C. EC50>1000 nM;

MKN1 cells = assay: MKN1 cell proliferation (CellTiter-Glo); details: 0.5% DMSO, read-out: CTG(IC50) ABS-72 H(nM) MKN1
Procedure: as §1

GP2D cells = assay: GP2D cell proliferation (CellTiter-Glo); details: 72 hr, 0.5% DMSO, read-out: CTG(IC50) ABS-72 H(nM) GP2D
Procedure: as §1

Row | IC50 (AGS cells; Homo sapiens) | IC50 (MKN1 cells; Homo sapiens, MKN-1, 72 hr) | IC50 (AGS cells) | IC50 (MKN1 cells; 72 hr) | Compound | IC50 (GP2D cells)
1 | > 1000 nM | > 1000 nM | – | – | C#Cc1c(F)ccc2cc(O)cc(-c3nc(OC)c4c(N5CC6CCC(C5)N6CC(F)(F)F)nc(OCC5(CN6CC7CC7C6)CC5)nc4c3F)c12 (centres unmarked) [Compound 4] | 100 to 1000 nM
2 | 100 to 1000 nM | > 1000 nM | – | – | C#Cc1c(F)ccc2cc(O)cc(-c3nc(OC)c4c(N5CC6CCC(C5)N6CCC#N)nc(OCC5(CN6CC7CC7C6)CC5)nc4c3F)c12 (centres unmarked) [Compound 3] | < 100 nM
3 | < 100 nM | > 1000 nM | – | – | C#Cc1c(F)ccc2cc(O)cc(-c3nc(OC)c4c(N5CC6CCC(C5)N6CC(C)=O)nc(OCC5(CN6CC7CC7C6)CC5)nc4c3F)c12 (centres unmarked) [Compound 12] | < 100 nM
4 | > 1000 nM | > 1000 nM | – | – | C#Cc1c(F)ccc2cc(O)cc(-c3nc(OC)c4c(N5CC6CCC(C5)N6CCC(=O)O)nc(OCC5(CN6CCC(F)CC6)CC5)nc4c3F)c12 [Compound 16] | 100 to 1000 nM
5 | 100 to 1000 nM | > 1000 nM | – | – | C#Cc1c(F)ccc2cc(O)cc(-c3nc(OC)c4c(N5CC6CCC(C5)N6CCCF)nc(OCC5(CN6CCC(F)CC6)CC5)nc4c3F)c12 [Compound 17] | < 100 nM
6 | < 100 nM | > 1000 nM | – | – | C#Cc1c(F)ccc2cc(O)cc(-c3nc(OC)c4c(N5CC6CCC(C5)N6CC#N)nc(OC[C@]56CCCN5C[C@@H](F)C6)nc4c3F)c12 [Compound 8] | < 100 nM
7 | 100 to 1000 nM | > 1000 nM | – | – | C#Cc1c(F)ccc2cc(O)cc(-c3nc(OC)c4c(N5CC6CCC(C5)N6CCOC)nc(OCC5(CN6CC7CC7C6)CC5)nc4c3F)c12 (centres unmarked) [Compound 5] | < 100 nM
8 | – | – | < 100 nM | > 1000 nM | 2-(3-(2-[(1-(3-azabicyclo[3.1.0]hexan-3-ylmethylcyclopropyl) methoxy]-7-(8-ethynyl-7-fluoro-3-hydroxynaphthalen-1-yl)-8-fluoro-5-methoxypyrido[4,3-d]pyrimidin-4-yl-3,8-diazabicyclo[3.2.1]octan-8-yl)acetonitrile [Compound 1] | < 100 nM
9 | 100 to 1000 nM | 100 to 1000 nM | – | – | C#Cc1c(F)ccc2cc(O)cc(-c3nc(OC)c4c(N5CC6CCC(C5)N6CCCO)nc(OCC5(CN6CC7CC7C6)CC5)nc4c3F)c12 (centres unmarked) [Compound 7] | < 100 nM
10 | 100 to 1000 nM | > 1000 nM | – | – | C#Cc1c(F)ccc2cc(O)cc(-c3nc(OC)c4c(N5CC6CCC(C5)N6CC(F)F)nc(OCC5(CN6CC7CC7C6)CC5)nc4c3F)c12 (centres unmarked) [Compound 13] | 100 to 1000 nM
11 | < 100 nM | 100 to 1000 nM | – | – | [2H]C([2H])([2H])Oc1nc(-c2cc(O)cc3ccc(F)c(C#C)c23)c(F)c2nc(OCC3(CN4CC5CC5C4)CC3)nc(N3CC4CCC(C3)N4CC#N)c12 (centres unmarked) [Compound 11] | < 100 nM
12 | 100 to 1000 nM | > 1000 nM | – | – | C#Cc1c(F)ccc2cc(O)cc(-c3nc(OC)c4c(N5CC6CCC(C5)N6C(C)CCC#N)nc(OCC5(CN6CC7CC7C6)CC5)nc4c3F)c12 (centres unmarked) [Compound 15] | > 1000 nM
13 | < 100 nM | 100 to 1000 nM | – | – | C#Cc1c(F)ccc2cc(O)cc(-c3nc(OC)c4c(N5CC6CCC(C5)N6C(=O)C#N)nc(OCC5(CN6CC7CC7C6)CC5)nc4c3F)c12 (centres unmarked) [Compound 2] | < 100 nM
14 | 100 to 1000 nM | 100 to 1000 nM | – | – | C#Cc1c(F)ccc2cc(O)cc(-c3nc(OC)c4c(N5CC6CCC(C5)N6CCO)nc(OCC5(CN6CC7CC7C6)CC5)nc4c3F)c12 (centres unmarked) [Compound 6] | < 100 nM
15 | < 100 nM | 100 to 1000 nM | – | – | C#Cc1c(F)ccc2cc(O)cc(-c3nc(OC)c4c(N5CC6CCC(C5)N6CCCC#N)nc(OCC5(CN6CC7CC7C6)CC5)nc4c3F)c12 (centres unmarked) [Compound 14] | < 100 nM
16 | < 100 nM | > 1000 nM | – | – | C#CCN1C2CCC1CN(c1nc(OCC3(CN4CC5CC5C4)CC3)nc3c(F)c(-c4cc(O)cc5ccc(F)c(C#C)c45)nc(OC)c13)C2 (centres unmarked) [Compound 9] | < 100 nM
17 | > 1000 nM | > 1000 nM | – | – | C#Cc1c(F)ccc2cc(O)cc(-c3nc(OC)c4c(N5CC6CCC(C5)N6CC(=O)O)nc(OCC5(CN6CCC(F)CC6)CC5)nc4c3F)c12 [Compound 18] | –
18 | 100 to 1000 nM | 100 to 1000 nM | – | – | [2H]C([2H])([2H])Oc1nc(-c2cc(O)cc3ccc(F)c(C#C)c23)c(F)c2nc(OCC3(CN4CC5CC5C4)CC3)nc(N3CC4CCC(C3)N4C#N)c12 (centres unmarked) [Compound 10] | < 100 nM
